Consider 9 sequences from patent US20060172941A1, “Anti-angiogenic peptides and methods of use thereof” (priority 2004, published 2006).

One experiment has as its system L1210. Briefly: Tumor cell proliferation (WST-1), L1210. In kind it is cell-based, mouse. To be noted: FIG. 11. The method, then:
Peptides to be tested were prepared at a stock concentration of 10 mM in sterile phosphate buffered saline. Cancer cell lines obtained from the American Type Culture Collection (MG-63, HT1080, A498, BxPC3, 786-0, PC-3, B16F1, B16F10, P388D1, Jurkat, MOLT4, THP-1, U-937, L1210, RPMI 8226, NCI H929, U266B1, K562) were cultured under appropriate conditions as described in the literature. Cell culture media and reagents were obtained from ATCC (Manassas, Va.), Invitrogen (Carlsbad, Calif.) or Mediatech (Herndon, Va.). Exponentially growing cultures were used for cell proliferation assays. Adherent cells were plated at a concentration of 100000 cells per milliter in growth media overnight (18-24 h) and treated the next day in a low serum media (growth media with 1% FBS for MG-63, HT1080, A498, BxPC3, PC-3, B16F1, B16F10. 786-0 cells were treated in media with 5% FBS). Suspension cell lines (P388D1, Jurkat, MOLT4, THP-1, U-937, L1210, RPMI 8226, NCI H929, U266B1, and K562) were diluted to a concentration of 100,000 cells per ml and treated on the same day with peptides. Peptides were diluted in treatment media and cells were treated for 48 or 72 hours depending on the cell line. Each dose was tested in triplicate for each experiment, and experiments were repeated for a minimum of three discrete times. After incubation, the relative number of cells was determined using WST-1 (Roche Applied Science). A 9.5 μl aliquot of WST-1 was added to each well. The plate was immediately read at 440 nm using a Bio-Tek PowerWave XS microplate reader, incubated for 2-3 hours at 37° C. and then read again. Cell proliferation was determined as the percent of the control cell proliferation. The absorbance of each well at time 0 was subtracted from the value of the final reading. Afterwards the blank values were averaged and subtracted from each test and control value. Finally, each test absorbance was divided by the average of the control absorbances and multiplied by 100 to obtain the percent of control. […]

For experiment [1], the system named is Human Umbilical Vein Endothelial Cells. Briefly: bFGF-mediated survival/proliferation of human umbilical vein endothelial cells (WST1). The format is cell-based. The conditions noted are these: FIG. 6, 9, 10, 17. The method, then:
(§1) The anti-angiogenic activities of the peptides were tested by measuring the level of inhibition of VEGF and bFGF mediated survival/proliferation of Bovine Retinal Endothelial Cells (BRE), Human Dermal Microvasculature Endothelial Cells, and Human Umbilical Vein Endothelial Cells, all of which are standard cell lines used to test anti-angiogenic compounds.
Human umbilical cord endothelial (HUVEC) cells were maintained in Cambrex EGM-2MV media. On day one, cells were starved overnight in 1% FBS in M200 media (Cascade Biologicals). The morning after, the media were replaced with serum-free media (control) or media containing 25 ng/ml of human VEGF165 and the various peptides to final concentrations as described.
(§2) In all cases, after 72 hours incubation, the amount of live cells in each well was measured with the WST1 assay (Roche).

Experiment [2] can be described thus: Heparin binding activity, Hi Trap Heparin HP column, NaCl step elution. To be noted: for [NaCl] for elution: heparin column, step gradient in 10 mM NaH2PO4 pH 7. The text has this:
Liquid chromatography was used to determine the relative levels of heparin binding activity of the individual heparin binding domains and of the anti-angiogenic miniproteins that contains them. In this assay, the strength of the heparin binding activity is proportional to the amount of NaCl that is required to elute the peptide bound to the heparin column. Peptides with low binding activity are eluted with lower NaCl concentration, whereas higher concentrations of NaCl are required for peptides with higher binding activity.
Hi Trap Heparin HP column (1 ml, Amersham Biosciences) was equilibrated with 10 column volumes (CV) of equilibration (EQ) buffer=10 mM NaH2PO4 pH 7. All buffers were loaded onto columns via syringes. 500 μl fractions are collected (flow rate=1 ml/minute). 500 μg of peptide (1 mg/ml, resuspended in EQ buffer) was added to each column and the flow through was collected for analysis. The columns were then washed with 3 CV of EQ buffer. Peptides are then eluted with a step gradient of 500, 625, 750, 875 mM NaCl in EQ buffer, 2 CV per each step. A final step of 3 CV of 1000 mM NaCl in EQ buffer was collected in 500 μl fractions. The A210 nm was measured using EQ and elution buffers as blanks.

For experiment [3], the system named is L1210 murine leukemia cells. As to the kind of experiment: L1210 murine leukemia intravenous model, survival. To be noted: dosed IP, FIG. 15a; for Survival: DBA/2 mice. In kind it is in vivo, mouse. The procedure: Antitumor activity of test peptides, administered intraperitoneally (IP), were evaluated against L1210 murine leukemia cells implanted intravenously (IV) in DBA/2 mice.
Studies generally consisted of randomly-assigned groups of 8 mice per group, which were inoculated IV with 1×10^5 cells per mouse from an in vivo leukemia cell line. In addition to groups tested with test peptides, studies usually included a vehicle-treated control group and a positive control group treated with an agent known to be active in the L1210 leukemia model. Starting one day after tumor inoculation (inoculation day defined as Day 0), mice were treated IP with either vehicle or test peptides in various schedules. Generally this consisted of treatment every other day for approximately 1 week (e.g., Days 1, 3, 5 and 7). A positive agent (e.g., cyclophosphamide) was usually given as a single IP injection on Day 1. All dosing solutions were prepared on each day of treatment. Survival was monitored daily and body weights were measured twice weekly. Anti-tumor activity was assessed by the increase in lifespan of the treated groups in comparison to the vehicle-treated control group. Studies with the L1210 leukemia model were limited to 30 days.

The subject of experiment [4] is Bovine Retinal Endothelial Cells (BRE). As to the kind of experiment: VEGF-mediated survival/proliferation of bovine retinal endothelial cells (WST1). The format is cell-based. The conditions noted are these: VEGF 25 ng/ml, 72 hours; for Inhibition of VEGF-mediated survival/proliferation: FIG. 4 and 5. The procedure: as §1
Bovine retinal endothelial (BRE) cells were maintained in Cambrex EG2 media. For non-adherent cell assays, on day one cells were starved for either 6 hours or overnight, then trypsinized and plated in 96-well plates in 100 μl of Optimem plus 1% fetal bovine serum (FBS). One hundred μl of Optimem plus 1% FBS was added to the wells containing, where appropriate, VEGF to a final concentration of 25 ng/ml, and the various peptides to final concentrations as described. For adherent cells, cells were plated in 96-well plates in complete media, allowed to adhere overnight, washed in starvation media (Optimem plus 1% FBS) and then starved during the day. At the end of the day, 100 μl of Optimem plus 1% FBS was added to the wells containing, where appropriate, VEGF to a final concentration of 25 ng/ml and the various peptides to final concentrations as described.
as §2
For orientation: Tetrazolium dyes change colour on reduction, which living cells bring about.

The test system of experiment [5] is VEGF binding to its receptor. As to the kind of experiment: Inhibition of binding of radiolabeled VEGF to endothelial cells. To be noted: 30 μM; for VEGF binding inhibition: FIG. 7 legend. The method, then:
The activity of the peptides SEQ ID NO.: 1 and SEQ ID NO.: 2 in blocking the binding of radiolabeled VEGF to endothelial cells is shown in FIG. 7.
FIG. 7 illustrates the inhibition of VEGF binding to its receptor by two miniproteins wherein a heparin binding domain is linked to an integrin binding domain. […] Both peptides achieved an almost 100% inhibition at a concentration of 30 μM.

A further experiment relates to B16-F1 melanoma cells. As to the kind of experiment: Subcutaneous B16 melanoma tumor growth in vivo. More on the design: species or system mouse. To be noted: 20 mg/kg and 40 mg/kg daily IP, FIG. 13. The method, then:
Because of the importance of the angiogenic process for tumorigenesis, miniproteins as described herein, were hypothesized to show good anti-tumor activity. The peptides of the invention were tested in an in vivo model of anti-tumor activity. This model compares the growth of subcutaneous B16 melanoma tumor in vivo either untreated or treated with various amount of miniproteins described in this application. This model is widely accepted in the art as a model to test the anti-tumor activity of compounds that inhibit tumor growth because they have anti-angiogenic activity.
Male C57BL/6 mice were obtained with a mean body weight of 20±2 g. Mouse B16-F1 melanoma cells were implanted subcutaneously (5×10^5 cell per animal). Peptides (formulated in water) were administered ip daily at the amount indicated starting the day after cells injection. In general, tumors became palpable around 9 days after injection of cells. Tumor were then measured every 2 days.

Experiment [6] can be described thus: Biological activity of D-amino acid versions of ST100,038 (test not specified). To be noted: tested against a control. The procedure: D-amino acid peptides can be made by generating a D-amino acid peptide with the same sequence as a L-amino acid peptide or by preparing a retro inverso form of a peptide. ST100,045 (SEQ ID NO.: 31) has the same sequence as ST100,038 (SEQ ID NO.: 29) was tested against ST100,059 (SEQ ID NO.: 30) which is the retro inverso version of ST100,038 and a control.

Entries after “also recorded” stand apart in the source; their conditions may differ. Where no end group is shown, it is not given here.

As for “RRGRAARRGRAAKKK (listed as Homo sapiens) [ST100,078]”, in the experiment on L1210, the “Inhibition of proliferation of mouse leukemia L1210 cells” value is “Neither ST100,077 (SEQ ID NO.: 16) encoding the integrin binding domain or ST100,078 (SEQ ID NO.: 17) encoding the heparin binding domain or the simple combination of the two peptides (ST100,077 and ST100,078) blocked cell proliferation or induced cell death”. Also, the “Inhibition of bFGF-mediated survival” value in experiment [1] was “not as potent”. The “[NaCl] for elution” value in experiment [2] was 875 mM.

Take “RLGYVVSDGRGDYPKKKRRGRAARRGRAA [ST100,065, middle rotated replaced version of ST100,061]”: in experiment [3], the “Survival” value was “statistically significant increases in survival” and the “mice (cured mice) that survived longer than 30 days” value is “Sixty to eighty”. In experiment [2], the “heparin binding activity (comparison in words)” value is “bind less strongly than ST100,082” and the “[NaCl] for elution” value worked out at 750 mM.

Consider “ATSLPPHSSQSP (listed as Homo sapiens) [ST100,038]”, for which the “Concentration that completely abolished VEGF-induced increase in WST-1 value” in experiment [4] (FIG. 4) is on record as “above 40 μM”. In addition, in experiment [4], the “Inhibition of VEGF-mediated survival/proliferation” value was “caused the amount of WST-1 to decrease”.

As for “RRGRAAKKKRRGRAAKKKRLGYVVSDGRGDYP [ST100,074]”, the “Inhibition of bFGF-mediated survival” value in experiment [1] is reported as “the most active in inhibiting bFGF stimulation”. In experiment [3], the “Survival” value is listed as “statistically significant increases in survival” and the “mice (cured mice) that survived longer than 30 days” value was “Sixty to eighty”. In addition, the fraction number in experiment [2] (500 μl fractions of heparin column elution) is 27-28. For the same sequence, in experiment [2], the “[NaCl] for elution” value is on record as 1000 mM.

As for YDGRGDSVVYGLKKKAARGRRAARGRR [ST100,032], in experiment [5], the “inhibition of VEGF binding” value was approximately 100% and the “VEGF binding inhibition” value is reported as “completely abolished VEGF binding”.

Turning to “RLGYVVSDGRGDYP (listed as Homo sapiens) [ST100,077]”, the “Inhibition of proliferation of mouse leukemia L1210 cells” value in the experiment with L1210 is “Neither ST100,077 (SEQ ID NO.: 16) encoding the integrin binding domain or ST100,078 (SEQ ID NO.: 17) encoding the heparin binding domain or the simple combination of the two peptides (ST100,077 and ST100,078) blocked cell proliferation or induced cell death”.

For the sequence “RRGRAARRGRAAKKKPSQSSHPPLSTA (listed as Homo sapiens) [ST100,068]”, the “[NaCl] for elution” value in experiment [2] is 875 mM. In addition, the “Inhibition of VEGF-mediated survival/proliferation” value in experiment [4] was “VEGF stimulation was inhibited with increasing doses; also recorded: more potent in blocking VEGF stimulation”. Further, the “Inhibition of tumor growth” value with B16-F1 melanoma cells is “able to inhibit tumor growth”.

Take “ATSLPPHSSQSP (also: D-amino acids noted, form not shown; listed as Homo sapiens) [ST100,045]”: the “biological activity” value in experiment [6] is reported as “Only the retro inverso form of ST100,038, (ST100,059; SEQ ID NO.: 30) was found to be biologically active”.

“PYAGRGDSVVYGLGGGPGAARGRRAARGRR [ST100,033]”: in experiment [5], the “inhibition of VEGF binding” value was approximately 100% and the “VEGF binding inhibition” value is recorded as “completely abolished VEGF binding”.
